Activity calls are given as the source filed them. The calls are words filed in the database; no cut-off is given here.
Tests used:
[1] = biological target: T1, DNA topoisomerase 1 (Homo sapiens, UniProt P11387); assay: Inhibition of wild type recombinant human Top1 expressed in baculovirus infected insect Sf9 cells assessed as decrease in supercoiled pBS(SK+) DNA isomer relaxation preincubated for 5 mins followed by pBS(SK+) DNA addition by agarose gel electrophoresis
T1 sequence (P11387 whole entry): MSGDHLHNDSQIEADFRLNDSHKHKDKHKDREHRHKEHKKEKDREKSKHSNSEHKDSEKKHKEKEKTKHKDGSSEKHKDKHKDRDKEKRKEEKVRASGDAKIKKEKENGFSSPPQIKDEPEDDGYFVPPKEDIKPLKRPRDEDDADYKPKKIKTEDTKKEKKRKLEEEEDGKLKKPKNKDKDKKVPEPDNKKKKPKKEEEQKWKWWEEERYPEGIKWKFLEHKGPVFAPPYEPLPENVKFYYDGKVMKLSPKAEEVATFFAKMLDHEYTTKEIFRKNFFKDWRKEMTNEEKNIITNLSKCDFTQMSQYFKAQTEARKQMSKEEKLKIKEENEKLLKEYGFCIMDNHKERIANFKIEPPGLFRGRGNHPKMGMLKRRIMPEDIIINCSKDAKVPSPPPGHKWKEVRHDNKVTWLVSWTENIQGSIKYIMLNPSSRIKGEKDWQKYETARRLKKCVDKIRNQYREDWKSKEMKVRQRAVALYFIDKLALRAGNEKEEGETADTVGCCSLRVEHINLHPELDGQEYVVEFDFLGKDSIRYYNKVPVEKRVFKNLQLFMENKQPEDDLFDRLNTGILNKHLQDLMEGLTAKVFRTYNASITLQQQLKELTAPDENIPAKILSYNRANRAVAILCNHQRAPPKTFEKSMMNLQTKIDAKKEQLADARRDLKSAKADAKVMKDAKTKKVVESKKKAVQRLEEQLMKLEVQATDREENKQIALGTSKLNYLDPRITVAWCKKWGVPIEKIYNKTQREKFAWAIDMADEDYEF

[2] = Inhibition of Leishmania donovani Top1 (large/ small subunits) expressed in Escherichia coli BL21 (DE3) pLysS cells assessed as decrease in supercoiled pBS(SK+) DNA isomer relaxation preincubated for 5 mins followed by pBS(SK+) DNA addition by agarose gel electrophoresis
[3] = system: HeLa; assay: Cytotoxicity against human HeLa cells assessed as inhibition of cell viability after 72 hrs by MTT assay; assay type: functional, cell-based
[4] = system: HCT-116; assay: Cytotoxicity against human HCT116 cells assessed as inhibition of cell viability after 72 hrs by MTT assay; assay type: functional, cell-based; settings: HCT-116, 72 h
[5] = Toxicity in HEK293 cells assessed as inhibition of cell viability after 72 hrs by MTT assay; assay type: cell-based; settings: human
[6] = biological target: T2, DNA topoisomerase 1 (Homo sapiens) (UniProt P11387); assay: Inhibition of human Top1 in human MCF7 cells assessed as decrease in supercoiled pBS(SK+) DNA isomer relaxation at 5 to 200 uM incubated simultaneously with enzyme and pBS(SK+) DNA for 30 mins by agarose gel electrophoresis; assay type: cell-based
T2 sequence (whole entry): T1 sequence (P11387 whole entry)

[7] = biological target: T2, DNA topoisomerase 1 (Homo sapiens); assay: Inhibition of wild type recombinant human Top1 expressed in baculovirus infected insect Sf9 cells assessed as stabilization of Top1-cleavage complexes at 50 to 200 uM incubated for 30 mins by agarose gel electrophoresis
[8] = biological target: T2, DNA topoisomerase 1 (Homo sapiens); assay: Inhibition of wild type recombinant human Top1 expressed in baculovirus infected insect Sf9 cells assessed as decrease in supercoiled pBS(SK+) DNA isomer relaxation at 5 to 200 uM incubated simultaneously with enzyme and pBS(SK+) DNA for 30 mins by agarose gel electrophoresis
[9] = system: MCF7; assay: Cytotoxicity against human MCF7 cells assessed as inhibition of cell viability after 72 hrs by MTT assay; assay type: functional, cell-based; settings: MCF7, 72 h
[10] = system: Leishmania donovani; assay: Inhibition of Leishmania donovani Top1 (large/ small subunits) expressed in Escherichia coli BL21 (DE3) pLysS cells assessed as decrease in supercoiled pBS(SK+) DNA isomer relaxation at 5 to 200 uM incubated simultaneously with enzyme and pBS(SK+) DNA for 30 mins by agarose gel electrophoresis
[11] = biological target: T2, DNA topoisomerase 1 (Homo sapiens); assay: Inhibition of human Top1 in human MCF7 cells assessed as decrease in supercoiled pBS(SK+) DNA isomer relaxation at 5 to 200 uM preincubated for 5 mins followed by pBS(SK+) DNA addition by agarose gel electrophoresis; assay type: cell-based

SMILES	EC50 [1] [µM]	EC50 [2] [µM]	other results
Cc1ccc(/C=C2/NC(=O)NC2=O)cc1	> 100	> 100	
COc1ccc(/C=C2/NC(=O)NC2=O)cc1C	> 100	> 100	
COc1cccc(/C=C2/NC(=S)NC2=O)c1	> 100	> 100	
COc1ccc(/C=C2/NC(=S)NC2=O)cc1OC	> 100	> 100	
COc1ccc(-c2csc(/C=C3/NC(=O)NC3=O)c2)cn1	> 100	> 100	
COc1ccc(/C=C2/NC(=S)NC2=O)cc1	> 100	> 100	
Cc1ccc(/C=C2/NC(=S)NC2=O)cc1	> 100	> 100	
O=C1NC(=S)N/C1=C/c1ccc([N+](=O)[O-])cc1	> 100	> 100	
Cc1cc(C)cc(/C=C2/NC(=O)NC2=O)c1	> 100	> 100	
COc1ccc(/C=C2/NC(=S)NC2=O)cc1C	> 100	> 100	

Further lines, with some results ahead:

EC50 [1] [µM]	EC50 [2] [µM]	SMILES	other results
> 100	> 100	COc1ccc(-c2ccc(/C=C3/NC(=O)NC3=O)s2)cn1	
48.9	> 100	Cn1cc(/C=C2/NC(=S)NC2=O)c2ccccc21	
> 100	> 100	COc1ccc(/C=C2/NC(=O)NC2=O)cc1OC	
> 100	> 100	O=C1NC(=O)/C(=C\c2cc(Br)cs2)N1	
> 100	> 100	O=C1NC(=S)N/C1=C/c1cc(Br)cs1	
> 100	> 100	COc1cc(/C=C2/NC(=O)NC2=O)cc(OC)c1OC	
10.1	65.2	COc1ccc(-c2ccc(/C=C3/NC(=S)NC3=O)s2)cn1	IC50 [3]: 1.1 µM; IC50 [4]: > 50 µM; IC50 at 72 h [5]: > 50 µM; inhibition [6]: Active; inhibition [7]: Active; inhibition [8]: Active; IC50 [9]: 11.4 µM; inhibition [10]: Active; inhibition [11]: Active
27.7	54.8	O=C1NC(=S)N/C1=C/c1ccc(-c2cccnc2)s1	
30.3	63.1	COc1ccc(-c2csc(/C=C3/NC(=S)NC3=O)c2)cn1	
93.2	> 100	COc1cc(/C=C2/NC(=S)NC2=O)cc(OC)c1OC	

Source: ChEMBL document CHEMBL3621093, “Design, synthesis and evaluation of thiohydantoin derivatives as potent topoisomerase I (Top1) inhibitors with anticancer activity” (Eur J Med Chem, 2015)
